The supplement of paper PMC10307832

Tests used:
Test in all cases: relative viability (nuclei count vs DMSO), 5 days (fraction); higher = more cells survive
[1] = compound: CCCS(=O)(=O)Nc1ccc(F)c(C(=O)c2c[nH]c3ncc(-c4ccc(Cl)cc4)cc23)c1F [Vemurafenib] + COc1cc2c(Oc3ccc(NC(=O)C4(C(=O)Nc5ccc(F)cc5)CC4)cc3F)ccnc2cc1OCCCN1CCOCC1 [Foretinib] (partner 0.25 µM)
Procedure, shortened: (§1)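 Lung cancer cell lines, seeded in 1536-well plates, were treated the following day by pin tool with a single drug or with five library-drug doses (not always all listed) in √10 steps on top of a fixed anchor-drug dose. Cells were fixed and nuclei stained in one step after 5 days, and nuclei were counted. Relative viability is the nuclei count for treated wells divided by that for vehicle wells, reported as medians of duplicate plates.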

[2] = compound: COc1cccc2cc(-c3nc([C@H]4CC[C@H](C(=O)O)CC4)n4ncnc(N)c34)[nH]c12 [OSI-027] + CS(=O)(=O)CCNCc1ccc(-c2ccc3ncnc(Nc4ccc(OCc5cccc(F)c5)c(Cl)c4)c3c2)o1 [Lapatinib] (partner 2 µM)
Procedure, shortened: as §1

[3] = compound: COc1cccc2cc(-c3nc([C@H]4CC[C@H](C(=O)O)CC4)n4ncnc(N)c34)[nH]c12 [OSI-027]
Procedure, shortened: (§2)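 Lung cancer cell lines received five library-drug doses (not always all listed) spaced by √10, pinned on vehicle-anchored 1536-well plates after an overnight stay at 37 °C. Five days later, with no medium change, nuclei were Hoechst-stained, imaged at 4× and counted with MetaXpress. Viability is treated-well nuclei relative to vehicle-well nuclei, as a median across plates. Passing plates had control CV below 25% and at least one doubling.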

[4] = compound: CCCS(=O)(=O)Nc1ccc(F)c(C(=O)c2c[nH]c3ncc(-c4ccc(Cl)cc4)cc23)c1F [Vemurafenib]
Procedure, shortened: as §2

| Cell Line | relative viability ([1]; first compound 0.03162 µM) | relative viability ([1]; first compound 0.1 µM) | relative viability ([1]; first compound 0.3162 µM) | relative viability ([1]; first compound 1 µM) | relative viability ([2]; first compound 0.01 µM) | relative viability ([2]; first compound 0.03162 µM) | relative viability ([2]; first compound 0.1 µM) | relative viability ([2]; first compound 0.3162 µM) | relative viability ([2]; first compound 1 µM) | relative viability ([3]; 0.01 µM) | relative viability ([3]; 0.03162 µM) | relative viability ([3]; 0.1 µM) | relative viability ([3]; 0.3162 µM) | relative viability ([3]; 0.5 µM, anchor plate) | relative viability ([3]; 1 µM) | relative viability ([4]; 0.03162 µM) | relative viability ([4]; 0.1 µM) | relative viability ([4]; 0.3162 µM) | relative viability ([4]; 1 µM) |
| --- | --- | --- | --- | --- | --- | --- | --- | --- | --- | --- | --- | --- | --- | --- | --- | --- | --- | --- | --- |
| NCI-H596 | 0.921 | 0.643 | 0.695 | 0.922 | 1.05 | 1.19 | 0.934 | 0.742 | 0.832 | 0.971 | 0.927 | 0.889 | 0.959 | 0.704 | 0.723 | 0.842 | 0.914 | 0.83 | 0.828 |
| NCI-H1993 | 0.793 |  | 0.98 | 0.823 | 0.786 | 0.808 | 0.773 | 0.785 | 0.693 | 0.803 | 0.817 | 0.704 | 0.611 | 0.558 | 0.438 | 0.844 |  | 0.993 | 0.974 |
| EPLC-272H | 0.614 | 0.435 | 0.873 | 0.685 | 1.12 | 0.965 | 0.699 | 0.664 | 0.55 | 0.972 | 0.934 | 0.78 | 0.514 | 0.289 | 0.439 | 0.889 | 0.854 | 1.01 | 0.903 |
| NCI-H1915 | 1.09 | 1.05 | 1.03 | 1 | 1.03 | 1.07 | 0.918 | 0.885 | 0.806 | 1.05 | 1.09 | 0.967 | 0.891 | 0.601 | 0.791 | 0.948 | 0.964 | 0.755 | 0.845 |
| LC-2-ad | 0.859 | 0.705 |  | 1.01 | 1.05 | 0.981 | 0.978 | 1.1 | 0.709 | 1.07 | 1.01 | 0.946 | 1.02 | 0.875 | 0.779 | 0.923 | 0.892 | 0.738 | 0.956 |
| A549 | 0.945 | 0.872 | 0.986 | 0.919 | 1.1 | 0.878 | 0.764 | 0.497 | 0.314 | 0.95 | 0.839 | 0.94 | 0.788 |  | 0.34 | 0.939 | 0.942 | 0.945 | 0.963 |
| NCI-H2126 | 1.13 | 0.696 | 1.31 | 1.09 | 0.771 | 0.814 | 0.728 | 0.563 | 0.529 | 0.977 | 1.02 | 0.943 | 0.873 | 0.722 | 0.664 | 0.925 | 0.845 | 0.966 | 0.988 |
| HOP-62 | 1.06 | 1.08 | 0.916 | 1.05 | 1.1 | 1.09 | 0.848 | 0.849 | 0.855 | 1 | 1.07 | 1 | 0.957 | 0.831 | 0.75 | 0.961 | 1.05 | 0.858 | 0.875 |
| HARA | 0.858 | 0.634 | 0.945 | 0.559 | 0.741 | 0.577 | 0.549 | 0.418 | 0.405 | 1.02 | 1.01 | 0.791 | 0.936 | 0.498 | 0.55 | 0.892 | 0.652 | 0.701 | 0.864 |
| NCI-H2087 | 1.02 | 0.979 |  | 1.12 | 1.11 | 1.06 | 0.873 | 0.951 | 0.769 | 0.986 | 1.03 | 0.911 | 0.911 | 0.605 | 0.508 | 1.01 | 1.11 |  | 1.13 |
| NCI-H520 | 0.702 | 0.763 | 0.897 | 0.626 | 0.832 | 0.835 | 0.666 | 0.408 | 0.235 | 1.15 | 0.972 | 0.73 | 0.628 | 0.261 | 0.34 | 0.944 | 0.944 | 1.08 | 0.924 |
| HCC-78 | 0.59 | 0.476 | 0.7 | 0.552 | 0.6 | 0.77 | 0.472 | 0.787 | 0.518 | 0.938 | 0.866 | 0.832 | 0.727 | 0.385 | 0.501 | 0.93 | 0.838 | 1.05 | 0.964 |
| COR-L 105 | 1.04 |  |  | 0.978 | 0.34 | 0.356 | 0.336 | 0.297 | 0.295 | 0.907 | 0.945 | 0.814 | 0.835 | 0.775 | 0.762 | 0.772 |  | 0.908 | 1.03 |
| NCI-H1437 | 1.18 | 1.22 | 1.3 | 1.27 | 0.807 | 0.756 | 0.807 | 0.69 | 0.312 | 1 | 0.921 | 1.01 | 0.914 | 0.881 | 0.565 | 0.904 | 0.958 | 0.974 | 1.05 |
